Like-named read-outs stand apart in the source and are kept apart here.
Legend:
[1] = assay type: in vitro ADME; settings: human
Experimental: Calibration standards (CS) were prepared by mixing CMPI-fortified control matrix (95 parts) with the respective spiking solution (5 parts) to make 50.0, 40.0, 20.0, 5.00, 2.50, 0.500, 0.100, and 0.050 μg/mL NAC/NACA pools which were stable for at least 80 days when stored at −20° C. and for 284 days when stored at −80° C. It was critical that CS pools be spiked quickly after CMPI fortification of the plasma, with the lowest concentration pools being spiked first, within 5-10 minutes of mixing plasma with CMPI.
Validation. The method was validated according to regulatory guidances. Three independently prepared analytical runs were executed to test the linearity of the calibration curve and the precision and accuracy of measuring validation samples (over 4 concentrations). Additional runs to evaluate recovery, matrix factor/suppression effects, reinjection reproducibility, and carryover were also performed. The selectivity of the method was evaluated over 10 lots of human plasma and the same lots were spiked at the mid QC level to verify inter-subject precision and accuracy. Freeze/thaw, benchtop, and autosampler stabilities were determined. Precision and accuracy data were also generated in lipemic and hemolyzed plasma lots, and stability in whole blood was tested. Long run lengths (up to 192 samples over 2 plates) were evaluated to determine whether the analytical system was reliable over twice the expected duty cycle.
(§1) All stability testing in plasma (benchtop, freeze/thaw, and long-term storage) was performed using QC samples prepared in both CMPI-fortified plasma as well as unfortified plasma. In this manner, the stabilities of both the oxidized thiols (in disulfide forms) and the thioether derivatives were tested, since it was assumed that unknown samples would likely contain some of both species. The CMPI-thioethers were stable for at least 5 freeze/thaw cycles and for at least 20 hours at room temperature, as compared to less than 1 hour for the underivatized free thiols. The oxidized thiols were stable for at least 5 freeze/thaw cycles and for at least 22 hours, as evidenced by their full recovery as thioethers when assayed using the total method. Stability was also tested in extracts, whether held for first injection or reinjected. Extracts were stable for over 90 hours when refrigerated. Precision and accuracy was acceptable in lipemic and hemolyzed plasma.

[2] = Stability of underivatized NAC and NACA thiol in plasma monitored directly by HILIC LC-MS/MS; assay type: in vitro ADME; settings: human, room temperature, read-out: Half-lives for thiol disappearance
Experimental: Half-lives for thiol disappearance were approximately 10 minutes at room temperature. Therefore, the inventors sought to stabilize NAC and NACA by derivatization. When plasma samples spiked with NAC and NACA were treated with TCEP and CMPI, the thiols were well recovered as the thioether derivatives.
as §1

CC(=O)N[C@@H](CS)C(=O)O [NAC, N-acetyl-L-cysteine]
Freeze/Thaw Stability [1]: At least 5 cycles, at either −20 °C or −80° C., either analyte | Benchtop Stability ([1]; 20 hours): At least 20 hours at room temperature, either analyte | Stability of calibration standard pools ([1]; 80 days): at least 80 days | Stability of calibration standard pools ([1]; 284 days): 284 days | half-life [2]: ~10 min

From patent publication US20200217852A1, “Quantitation of Free and Total N-Acetylcysteine Amide and Its Metabolite N-Acetylcysteine in Human Plasma Using Derivatization and Electrospray LC-MS/MS” (NACUITY PHARMACEUTICALS, INC., priority 2019, published 2020)
